The record followed here is ChEMBL document CHEMBL1158821, “Anti-inflammatory sesquiterpene-quinones from the New Zealand sponge Dysidea cf. cristagalli” (J Nat Prod, 2005).

A short description of series [1]: Antiinflammatory activity in PMA-induced human neutrophils assessed as inhibition of superoxide production. Type of series: functional, cell-based. The note with it: Neutrophil.
The nature of series [2]: Toxicity against human HL60 cells assessed as inhibition of cell proliferation. In kind it is cell-based. The note with it: HL-60 cells.

Structures are written as SMILES.

The IC50 is the concentration needed to halve the response being measured. Take `CC1=CC[C@H]2C(C)(C)CCC[C@]2(C)[C@H]1CC1=C(O)C(=O)C=CC1=O`: the half-inhibitory concentration (IC50) in series [1] amounted to 11000 nM; in series [2] it was 340 nM.
In the case of `CC(=O)Oc1ccc(O)c(C[C@H]2C(C)=CC[C@H]3C(C)(C)CCC[C@]23C)c1O`, the concentration for half-maximal inhibition (IC50) in series [1] amounted to 3000 nM; in series [2], 370 nM.
